# Laboratory results reported in US12016849B2, “Magnesium picolinate compositions and methods of use” (Bonafide Health, LLC, priority 2016, dated 2024).
# Experiments:
# [1] = Stability of magnesium picolinate (hygroscopicity, storage, light); format: physicochemical
# Text: Magnesium picolinate compositions of the invention were stable during storage at room temperature.
# [2] = Solubility of the isolated product; format: physicochemical
# Method: Picolinic acid (3.7 g, 30 mmol) and magnesium acetate tetrahydrate (3.2 g, 15 mmol) were suspended in 25 mL of water. The slurry was stirred and heated at reflux overnight and then filtered to isolate 1.7 grams of crystalline MgPic. The remaining filtrate was cooled and evaporated to dryness, providing an additional 2.2 grams of amorphous MgPic with traces of residual acetate. The acetate was removed by washing the solid with ethanol to provide a 96% overall yield of MgPic (crystalline and amorphous). The ^1H-NMR spectrum of the product (FIG. 2) is consistent with the spectrum of a metal picolinate salt. […] The product contained acceptable trace levels of barium and other heavy metals of less than 200 ppm of each element tested. As such, embodiments of a MgPic composition may comprise less than about 200 ppm of barium and/or other heavy metals. In some embodiments, these compositions may comprise less than about 150, less than about 100, less than 50, or less than 20 ppm of barium and/or other heavy metals.
# Picolinic acid and magnesium oxide (0.5 equiv.) were added to water, giving a white, stirrable slurry. The slurry was heated to 95-100° C. for 3 hours, and more water was added, tripling the initial amount of water [note: the procedure was based on the preparation of a related magnesium salt using magnesium oxide, in which the initial slurry completely dissolved at 80-90° C. […]
# [3] = Serum levels of magnesium and picolinic acid, double-blind clinical study; format: in vivo; details: 500 mg magnesium picolinate vs control 916 mg picolinic acid and 90 mg magnesium; at 1, 4, 6 and 8 hours
# Method: In a double-blind clinical study, 30 subjects are divided into two groups (n=15). The control group receives a supplement containing 916 mg picolinic acid and 90 mg of magnesium. The trial group receives a supplement containing 500 mg of magnesium picolinate (46 mg of magnesium and 454 mg of picolinate), or one-half the total dose of picolinate and magnesium of the control group. Serum levels of picolinic acid (ng/mL) and serum levels of magnesium (ng/mL) are measured at one hour, four hours, six hours, and eight hours. The mean serum magnesium levels for the trial group are between 80-120% of the control group at each time point. The mean serum picolinic acid levels for the trial group are between 80-120% of the control group at each time point.
# [4] = Cerebrospinal fluid (CSF) levels of magnesium and picolinic acid, double-blind clinical study; format: in vivo; details: 500 mg magnesium picolinate vs control 916 mg picolinic acid and 90 mg magnesium; four and eight hours, spinal tap
# Method: In a double-blind clinical study, 30 subjects are divided into two groups (n=15). The control group receives a supplement containing 916 mg picolinic acid and 90 mg of magnesium. The trial group receives a supplement containing 500 mg of magnesium picolinate (46 mg of magnesium and 454 mg of picolinate), or one-half the total dose of picolinate and magnesium of the control group. CSF levels of picolinic acid (ng/mL) and serum levels of magnesium (ng/mL) are measured at four hours and eight hours via spinal tap. The mean CSF magnesium levels for the trial group are between 80-120% of the control group at each time point. The mean CSF picolinic acid levels for the trial group are between 80-120% of the control group at each time point. Thus, magnesium picolinate provides 80-120% of the brain penetration of magnesium, and 80-120% of the brain penetration of picolinic acid, relative to twice the dose of magnesium and picolinic acid alone.
# [5] = Magnesium and picolinic acid Cmax and Tmax, double-blind clinical study; format: in vivo; details: 500 mg magnesium picolinate vs control 916 mg picolinic acid and 90 mg magnesium
# Method: In a double-blind clinical study, 30 subjects are divided into two groups (n=15). The control group receives a supplement containing 916 mg picolinic acid and 90 mg of magnesium. The trial group receives a supplement containing 500 mg of magnesium picolinate (46 mg of magnesium and 454 mg of picolinate), or one-half the total dose of picolinate and magnesium of the control group. Magnesium and picolinic acid Cmax (ng/mL) and Tmax (minutes) are measured in each subject. […] Thus, magnesium picolinate provides 80-120% of the maximum serum concentration of magnesium and picolinic acid relative to twice the dose of magnesium alone, or relative to twice the dose of picolinic acid alone. The mean magnesium and picolinic acid Tmax for the trial group are between 50-80% of the control group at each time point. Thus, magnesium picolinate delivers the maximum amount of bioavailable magnesium and picolinic acid in 50-80% less time relative to twice the dose of magnesium alone, or relative to twice the dose of picolinic acid alone.
# [6] = Magnesium and picolinic acid AUC0→∞, double-blind clinical study; format: in vivo; details: 500 mg magnesium picolinate vs control 916 mg picolinic acid and 90 mg magnesium
# Method: In a double-blind clinical study, 30 subjects are divided into two groups (n=15). The control group receives a supplement containing 916 mg picolinic acid and 90 mg of magnesium. The trial group receives a supplement containing 500 mg of magnesium picolinate (46 mg of magnesium and 454 mg of picolinate), or one-half the total dose of picolinate and magnesium of the control group. Magnesium and picolinic acid AUC0→∞ (ng·h/mL) are measured in each subject. The mean magnesium and picolinic acid AUC0→∞ for the trial group are between 80-120% of the control group at each time point.
# [7] = Total magnesium in rat sera, liver and brain by atomic absorption spectroscopy; format: in vivo, Wistar rats; details: rats, 500 mg elemental Mg/kg diet, oral, 8 weeks; compared to magnesium oxide and control
# Method: (§1) Seven male Wistar rats per treatment arm (age: 8 week, weight: 180±20 g) were housed in a controlled environment with a 12:12-h light-dark cycle at 22° C. and were provided with rat chow and water ad libitum. Following a 7-day acclimatization period, animals were randomly be divided into the following groups: • 1. Control (no treatment); • 2. Control+MgO (500 mg elemental Mg/kg diet), • 3. Control+MgPic (500 mg elemental Mg/kg diet), • 4. HFD (fed with high fat diet); • 5. HFD+MgO (500 mg elemental Mg/kg diet), • 6. HFD+MgPic (500 mg elemental Mg/kg diet).
# (§2) The MgPic administered was prepared in accordance with the methods of the inventions described herein. All treatments were administered daily as an oral supplement per day for 8 weeks. […] The rats were subjected to several study protocols during the treatment period.
# Laboratory Analyses—Following the treatment period, plasma was extracted and used for the determination of glucose, insulin, visceral fat, magnesium, and leptin concentrations, which was performed with an automatic analyzer (Samsung). Brain antioxidant enzyme catalase (CAT) and glutathione peroxidase (GSH-Px) were measured using a commercially available assay kit (Cayman Chemical, Ann Arbor, Mich., USA) according to the manufacturer's instructions. […] Morris Water Maze—The water maze test was performed according to methods known to those of skill in the art. The water maze was conducted in a large circular black pool (160 cm in diameter) containing water (temperature at 24±2° C.) that had been colored with a nontoxic black dye to contrast the rat. A 12-cm-diameter black-colored round platform was placed 1.5 cm below the water surface. All of the rats were placed in the water maze room 1 h before the water maze trial daily. […] The swimming pathway and latency in locating the hidden platform was recorded for each trial. […] All samples were processed to produce clear digests, and the total magnesium in each sample was measured by flame AAS (Perkin Elmer) using established and fully verified methods. […]
# [8] = tested on: male Wistar rats; assay: Laboratory analyses after 8 weeks of treatment (glucose, insulin, visceral fat, leptin); format: in vivo; details: 500 mg elemental Mg/kg diet, oral
# Method: as §1, §2
# Laboratory Analyses—Following the treatment period, plasma was extracted and used for the determination of glucose, insulin, visceral fat, magnesium, and leptin concentrations, which was performed with an automatic analyzer (Samsung). Brain antioxidant enzyme catalase (CAT) and glutathione peroxidase (GSH-Px) were measured using a commercially available assay kit (Cayman Chemical, Ann Arbor, Mich., USA) according to the manufacturer's instructions. […] Morris Water Maze—The water maze test was performed according to methods known to those of skill in the art. The water maze was conducted in a large circular black pool (160 cm in diameter) containing water (temperature at 24±2° C.) that had been colored with a nontoxic black dye to contrast the rat. A 12-cm-diameter black-colored round platform was placed 1.5 cm below the water surface. All of the rats were placed in the water maze room 1 h before the water maze trial daily. The rats were given a maximum time of 60 s to find the hidden platform, and they were allowed to remain on the platform for 30 s. […] The rats were given a daily session of four trials per day for six consecutive days. The swimming pathway and latency in locating the hidden platform was recorded for each trial. On the seventh day, the time taken to reach the quadrant and the number of crossings of the target quadrant was tested with the platform removed. […] It is noted that rats fed a high fat diet experience diminished memory function. […] Atomic Absorption Spectroscopy—Rat sera, liver, brains were removed and the cerebral cortex and hippocampus were dissected for analysis after the treatment period. The tissues were stored at −70° C. until analysis using atomic absorption spectroscopy (AAS). […] All samples were processed to produce clear digests, and the total magnesium in each sample was measured by flame AAS (Perkin Elmer) using established and fully verified methods. […]
# [9] = tested on: male Wistar rats; assay: Morris water maze; format: in vivo
# Method: as §1
# (§3) The MgPic administered was prepared in accordance with the methods of the inventions described herein. […]
# (§4) Laboratory Analyses—Following the treatment period, plasma was extracted and used for the determination of glucose, insulin, visceral fat, magnesium, and leptin concentrations, which was performed with an automatic analyzer (Samsung). Brain antioxidant enzyme catalase (CAT) and glutathione peroxidase (GSH-Px) were measured using a commercially available assay kit (Cayman Chemical, Ann Arbor, Mich., USA) according to the manufacturer's instructions. […] The swimming pathway and latency in locating the hidden platform was recorded for each trial. […] All samples were processed to produce clear digests, and the total magnesium in each sample was measured by flame AAS (Perkin Elmer) using established and fully verified methods. […]
# [10] = tested on: Brain antioxidant enzyme catalase (CAT); assay: Brain antioxidant enzyme activity, commercial assay kit; format: in vivo, Wistar rats; details: rats, 500 mg elemental Mg/kg diet, 8 weeks; compared to magnesium oxide
# Method: as §1, §3, §4
# [11] = tested on: glutathione peroxidase (GSH-Px); assay: as above; format: in vivo, Wistar rats; details: rats, 500 mg elemental Mg/kg diet, 8 weeks; compared to magnesium oxide
# Method: as §1, §3, §4
# [12] = compared to control specimens and those given magnesium oxide
compound,measurement,setting,value
"O=C(O)c1ccccn1 [amorphous solid, magnesium picolinate]",signs of degradation,[1]; after 30 days at 75% relative humidity and 40° C.,no signs of degradation
same,signs of degradation,[1]; after 60 days at 40% relative humidity and 25° C.,no signs of degradation
same,hygroscopicity,[1]; as measured by weight,not hygroscopic
same,stability / color change on exposure to light,[1],did not change color
"O=C(O)c1ccccn1 [MgPic, magnesium picolinate]",stability during storage,[1]; 25° C./40% relative humidity,stable
same,stability during storage,[1]; 40° C./75% relative humidity,stable
same,stability / color change on exposure to light,[1]; listed as MgPic composition,stable on exposure to light
same,stability during storage,[1]; room temperature,stable
same,solubility in water,"[2]; product of Example 2, clear and colorless solution",readily soluble in water
same,solubility in ethanol/water,[2]; product of Example 13,soluble in ethanol/water
same,"mean serum magnesium levels, relative to control group",[3],80-120%
same,"mean serum picolinic acid levels, relative to control group",[3],80-120%
same,"mean CSF magnesium levels, relative to control group",[4],80-120%
same,"mean CSF picolinic acid levels, relative to control group",[4],80-120%
same,"mean magnesium Cmax, relative to control group",[5],80-120%
same,"mean magnesium Tmax, relative to control group",[5],50-80%
same,"mean picolinic acid Cmax, relative to control group",[5],80-120%
same,"mean picolinic acid Tmax, relative to control group",[5],50-80%
same,"mean magnesium AUC0→∞, relative to control group",[6],80-120%
same,"mean picolinic acid AUC0→∞, relative to control group",[6],80-120%
same,magnesium levels in brain (FIG. 4A-4C),[7],substantially improved magnesium levels
same,magnesium levels in liver (FIG. 4A-4C),[7],substantially improved magnesium levels
same,magnesium levels in serum (FIG. 4A-4C),[7],substantially improved magnesium levels
same,glucose (FIG. 4D-4E),[8]; [12],reduced amounts
same,insulin (FIG. 4D-4E),[8]; [12],reduced amounts
same,leptin secretion (FIG. 4G),[8]; compared to magnesium oxide,unexpectedly superior reduction of leptin secretion
same,visceral fat (FIG. 4F),[8]; compared to magnesium oxide,unexpectedly improved reduction of visceral fat
same,memory function: time taken to reach the quadrant with the hidden platform (FIG. 5),"[9]; rats fed a high fat diet and rats fed the control diet, 500 mg elemental Mg/kg diet",improved memory function
same,memory function (FIG. 6),"[9]; rats fed a high fat diet, compared to rats administered magnesium oxide",improvements
same,brain antioxidant enzyme (CAT) activity (FIG. 7A),[10],superior improvements of increasing brain antioxidant enzyme (CAT) activity
same,brain antioxidant enzyme (GSH-Px) activity (FIG. 7B),[11],superior improvements of increasing brain antioxidant enzyme (GSH-Px) activity
